{
  "source": "patent US9987242B2",
  "about": "“Treatment of Levodopa-induced Dyskinesias” (NORTHWESTERN UNIVERSITY, priority 2015, dated 2018)",
  "format_in_all_cases": "cell-based, mice",
  "key": {"[1]": {"system": "dSPN glutamatergic synapses", "test": "Depotentiation of established LTP by low-frequency stimulation (2 Hz, 10 min) in dSPNs", "settings": "VU10010 5 μM"}, "[2]": {"system": "NMDAR-mediated currents in dSPNs", "test": "NMDAR-mediated uEPSCs and EPSCs in dSPNs, whole-cell voltage clamp", "settings": "for amplitude of NMDAR-mediated uEPSCs: muscarine and VU10010 5 μM in the presence of SKF81297, glutamate uncaging", "experimental": "For whole-cell voltage clamp recordings, patch pipettes were loaded with internal recording solution containing (mM): 120 CsMeSO3, 15 CsCl, 8 NaCl, 10 HEPES, 0.2 EGTA, 10 tetraethylammonium Chloride (TEA-Cl), 5 QX-314, 2 Mg-ATP, 0.3 Na-GTP; pH was adjusted to 7.25 with CsOH and osmolarity to ˜305 mOsm l^−1. All the recordings were made using a MultiClamp 700 A amplifier, and signals were filtered at 2 kHz and digitized at 10 kHz. Data were excluded when the series resistance changed >20% over the time course of the experiment. For perforated patch recordings, the internal recording solution comprised (in mM): 125 KMeSO4, 14 KCl, 2 MgCl2, 0.2 EGTA, 10 HEPES; pH was adjusted to 7.25 with NaOH and osmolarity to ˜280 mOsm l^−1. Amphotericin B was used to achieve electrical access through the perforated-patch method (Shen et al., 2007; 2008; herein incorporated by reference in their entireties). Capacitance current was continuously monitored during perforation by applying a 5-10 mV pulse from a holding potential of −70 mV. The amplifier bridge circuit was adjusted to compensate for series resistance and continuously monitored during recordings. Electrode capacitance was also compensated. Data were excluded when the input resistance (Ri) changed >20% over the time course of the experiment.\nGlutamate uncaging was achieved using a Verdi/Mira (Coherent Laser Group, Santa Clara, Calif.) (Plotkin et al., 2014). 5 mM MNI-glutamate was superfused over the slice at 0.4 ml/hr using a syring pump and multi-barreled perfusion manifold (Cell MicroControls, Norfolk, Va.). The perfusion solution was (in mM): 124 NaCl, 3 KCl, 2 CaCl2, 1 NaH2PO4, 26 HEPES and 16.66 glucose, and also contained (in μM): 3 muscarine, 10 serine, 10 NBQX and 10 gabazine, plus or minus: 3 SKF81297 and/or 5 VU10010). Glutamate was uncaged adjacent to individual spines using 1 ms pulses of 720-725 nm light typically 10-20 mW in power at the sample plane. Photolysis power was tuned via a third Pockels cell modulator (Con Optics, Danbury, Conn.) to achieve uEPSCs≤5 pA. uEPSC amplitudes were measured from averaged (3-5 repetitions) traces. All uncaging experiments were performed in 0 mM Mg^2+-containing solutions.\nTo determine the situation in dSPNs, the effect of muscarine and VU10010 on NMDAR-mediated EPSCs evoked by uncaging glutamate on spine heads (uEPSCs) was examined in the presence of SKF81297."}, "[3]": {"system": "dSPN glutamatergic synapses", "test": "Spike-timing-dependent LTD induction (post-pre pairing) in dSPNs, ex vivo corticostriatal slices, perforated-patch or whole-cell recording", "text": "Male C57Bl/6 and FVB mice expressing tdTomato or eGFP under control of either the Drd1 or Drd2 receptor regulatory elements were used. All the mice used for the study were hemizygous for these transgenes. For some experiments, D1-tdTomato BAC mice were crossed with a transgenic line expressing Cre recombinase under control of the ChAT promoter. All mice were 8-10 weeks of age before stereotaxic surgery. Animal use procedures were reviewed and approved by the Northwestern Institutional Animal Care and Use Committee.\nSlices were then transferred to a holding chamber containing aCSF. After an incubation period at 34° C. for 30 min, the slices were then kept in the holding chamber at the room temperature for another 30 min before use.\nIndividual slices were transferred to a recording chamber and were continuously perfused (2-3 ml min^−1) with aCSF for the duration of the experiment. Experiments were performed in the dorsolateral striatum at elevated temperature (30-31° C.).\nAll the recordings were made using a MultiClamp 700 A amplifier, and signals were filtered at 2 kHz and digitized at 10 kHz. Data were excluded when the series resistance changed >20% over the time course of the experiment. […] Capacitance current was continuously monitored during perforation by applying a 5-10 mV pulse from a holding potential of −70 mV. The amplifier bridge circuit was adjusted to compensate for series resistance and continuously monitored during recordings. Electrode capacitance was also compensated. Data were excluded when the input resistance (Ri) changed >20% over the time course of the experiment.\nData analysis was conducted with Igor Pro 6 (Wavemetrics, Lake Oswego, Oreg.) and Clampfit 9 (Molecular Devices). EPSP amplitude was calculated from 50-60 sweeps immediately before the start of induction and 20-30 min after the end of induction. The change in EPSP amplitude was calculated by averaging EPSP values after the induction and normalized to the average baseline EPSP amplitude. Compiled data were expressed as mean±s.e.m. Statistical tests were performed using Excel (Microsoft, Redmond, Wash.) and SigmaStat (Systat, San Jose, Calif.). Non-parametric Mann-Whitney or Wilcoxon tests were used to assess the experiment results, using a probability threshold of 0.05.\nTo determine if M4Rs were modulating synaptic plasticity, a spike-timing-dependent plasticity (STDP) paradigm was used. […] Once identified, neurons were monitored and controlled with perforated-patch recording to preserve intracellular signaling mechanisms and to allow stable, long-term monitoring of synaptic strength (FIG. 1A).\nSynaptic plasticity was induced by pairing local stimulation of glutamatergic afferent fibers with postsynaptic spikes evoked by short bursts of intracellular current injection that were repeated at 5 Hz (FIGS. 1B, 4A)."}, "[4]": {"system": "dSPN glutamatergic synapses", "test": "Spike-timing-dependent LTP induction (pre-post pairing) in dSPNs, ex vivo slices", "settings": "VU10010 5 μM"}},
  "note": "Entries after “also recorded” stand apart in the source; their conditions may differ.",
  "data": [
    {"smiles": "Cc1cc(C)c2c(N)c(C(=O)NCc3ccc(Cl)cc3)sc2n1", "note": "[VU10010]", "values": [
      {"measurement": "depotentiation by LFS in dSPNs", "setting": "[1]; dyskinetic (LID) mice, no D1R antagonist", "result": "restored depotentiation"},
      {"measurement": "depotentiation by LFS in dSPNs", "setting": "[1]; naive mice", "result": "Depotentiation also was achieved; also recorded: promoted the reversal of established LTP"},
      {"measurement": "muscarine modulation of NMDAR-mediated EPSCs", "setting": "[2]; muscarine 3 μM + VU10010 5 μM, local electrical stimulation", "result": "augmented"},
      {"measurement": "amplitude of NMDAR-mediated uEPSCs", "setting": "[2]", "result": "significantly reduced the amplitude"},
      {"measurement": "amplitude of NMDAR-mediated uEPSCs", "setting": "[2]; listed as VU 10010", "result": "suppressed NMDAR-mediated uEPSC currents"},
      {"measurement": "LTD induction in dSPNs (EPSP amplitude)", "setting": "[3]; VU10010 5 μM, no D1R antagonist, 20 repetitions of pairing", "result": "did not lead to LTD induction"},
      {"measurement": "LTD induction in dSPNs (EPSP amplitude)", "setting": "[3]; VU10010 5 μM, no D1R antagonist, 60 repetitions of pairing", "result": "LTD induction was robust; also recorded: LTD was induced"},
      {"measurement": "LTD induction in dSPNs (EPSP amplitude)", "setting": "[3]; physostigmine 10 μM co-applied with VU10010 5 μM, 20 repetitions", "result": "LTD was induced"},
      {"measurement": "STDP LTP induction in dSPNs", "setting": "[4]; dyskinetic (LID) mice", "result": "blocked the induction of STDP LTP; also recorded: LTP was disrupted"},
      {"measurement": "STDP LTP induction in dSPNs", "setting": "[4]; naive mice", "result": "disrupted STDP LTP induction; also recorded: LTP induction was also blocked"}
    ]}
  ]
}
